Laboratory results published in patent US20230233576A1, “ECLITASERTIB FOR USE IN TREATING CONDITIONS INVOLVING SYSTEMIC HYPERINFLAMMATORY RESPONSE” (priority 2020, published 2023).

Tested on: laboratory markers of severe COVID-19 (D-dimer, leukocytes, lymphocytes, neutrophil to lymphocyte ratio, ferritin, LDH)
Assay: Phase 1b severe COVID-19 study: laboratory markers of severe COVID-19
Assay type: in vivo, human
Conditions: for D-Dimer relative change from baseline, RIPK1 Inhibitor vs placebo, point estimate / Ferritin relative change from baseline, RIPK1 Inhibitor vs placebo, point estimate / Lactate Dehydrogenase relative change from baseline, RIPK1 Inhibitor vs placebo, point estimate / Leukocytes relative change from baseline, RIPK1 Inhibitor vs placebo, point estimate / Lymphocytes relative change from baseline, RIPK1 Inhibitor vs placebo, point estimate / Neutrophils/Lymphocytes (RATIO) relative change from baseline, RIPK1 Inhibitor vs placebo, point estimate: MMRM; for D-Dimer relative change from baseline, RIPK1 Inhibitor vs placebo, point estimate / Ferritin relative change from baseline, RIPK1 Inhibitor vs placebo, point estimate / Lactate Dehydrogenase relative change from baseline, RIPK1 Inhibitor vs placebo, point estimate / Leukocytes relative change from baseline, RIPK1 Inhibitor vs placebo, point estimate / Lymphocytes relative change from baseline, RIPK1 Inhibitor vs placebo, point estimate / Neutrophils/Lymphocytes (RATIO) relative change from baseline, RIPK1 Inhibitor vs placebo, point estimate / D-Dimer: point estimate of the relative change from baseline (geometric mean) / D-Dimer: point estimate of the relative change from baseline displayed as percent change / Ferritin: point estimate of the relative change from baseline (geometric mean) / Ferritin: point estimate of the relative change from baseline displayed as percent change / Lactate Dehydrogenase: point estimate of the relative change from baseline (geometric mean) / Lactate Dehydrogenase: point estimate of the relative change from baseline displayed as percent change / Leukocytes: point estimate of the relative change from baseline (geometric mean) / Leukocytes: point estimate of the relative change from baseline displayed as percent change / Lymphocytes: point estimate of the relative change from baseline (geometric mean) / Lymphocytes: point estimate of the relative change from baseline displayed as percent change / Neutrophils/Lymphocytes (RATIO): point estimate of the relative change from baseline (geometric mean) / Neutrophils/Lymphocytes (RATIO): point estimate of the relative change from baseline displayed as percent change: LOCF, Efficacy population
Source text: For clinical assessment, the variables associated with endpoints were: • main inflammatory marker CRP • Oxygenation saturation and oxygen delivery (e.g. SpO2, SpO2/FiO2), Laboratory markers of severe COVID-19 including D-dimer, lactate dehydrogenase (LDH), ferritin and hematology laboratory (white blood cell count, differential blood lymphocytes, neutrophil to lymphocyte ratio) • Clinical status of participant (7-point ordinal scale) • Thrombolytic and vasopressor treatments
Other secondary clinical assessment endpoints included: • Number of Days without need for oxygen support and alive (oxygen saturation≥92% breathing room air) up to Day 28 • Numbers of Ventilator-free days and alive up to Day 28 • Change from baseline in markers of inflammation (White blood cell count, differential blood lymphocytes, neutrophil to lymphocyte ratio, IL-6) and D-Dimer at Day 7 and EOT • Incidence of Deaths up to Day 28 • Percentage of participants receiving thrombolytic treatment up to Day 28 • Percentage of participants receiving vasopressor treatment up to Day 28 • Numbers of Respiratory Failure-Free Days (RFFD) and alive up to Day 28
Exploratory clinical assessments endpoints included: • Change from baseline in ferritin and LDH at Day 7 and EOT • Proportion of participants per category of the 7-point clinical scale at EOT • Time to improvement by 2 points in category of 7-point clinical scale • Quantitative SARS-COV-2 viral load in blood at baseline and on Day 3, 5, 7 and EOT
The relative changes from baseline in laboratory markers of severe COVID-19 were analyzed for the two treatment groups and for the treatment comparison of RIPK1 Inhibitor versus placebo, at Day 7 and EOT (Table 22, Table 23, Table 24). See also FIGS. 14, 15, 16, 17, 18, and 19.

**Q.** Which “D-Dimer relative change from baseline, RIPK1 Inhibitor vs placebo, point estimate” value (600 mg, Day 7) does the source give for `CN1C(=O)[C@@H](NC(=O)c2nnc(Cc3ccccc3)[nH]2)COc2cccnc21` [RIPK1 Inhibitor, (S)-5-benzyl-N-(5-methyl-4-oxo-2,3,4,5-tetrahydropyrido[3,2-b][1,4]oxazepin-3-yl)-4H-1,2,4-triazole-3-carboxamide] here?
**A.** 0.88

**Q.** And the “Ferritin relative change from baseline, RIPK1 Inhibitor vs placebo, point estimate” value (600 mg, Day 7)?
**A.** 0.96

**Q.** And the “Lactate Dehydrogenase relative change from baseline, RIPK1 Inhibitor vs placebo, point estimate” value (600 mg, Day 7)?
**A.** 0.80

**Q.** What about the “Leukocytes relative change from baseline, RIPK1 Inhibitor vs placebo, point estimate” value (600 mg, Day 7) of the same compound?
**A.** 0.87

**Q.** And the “Lymphocytes relative change from baseline, RIPK1 Inhibitor vs placebo, point estimate” value (600 mg, Day 7)?
**A.** 1.02

**Q.** What about the “Neutrophils/Lymphocytes (RATIO) relative change from baseline, RIPK1 Inhibitor vs placebo, point estimate” value (600 mg, Day 7) of the same compound?
**A.** 0.65

**Q.** What about the “difference with RIPK1 Inhibitor versus placebo for ferritin” value (600 mg, Day 7 and EOT) of the same compound?
**A.** No differences

**Q.** And the “D-Dimer relative change from baseline, RIPK1 Inhibitor vs placebo, point estimate” value (600 mg, EOT)?
**A.** 1.07

**Q.** And the “Ferritin relative change from baseline, RIPK1 Inhibitor vs placebo, point estimate” value (600 mg, EOT)?
**A.** 0.98

**Q.** What about the “Lactate Dehydrogenase relative change from baseline, RIPK1 Inhibitor vs placebo, point estimate” value (600 mg, EOT) of the same compound?
**A.** 0.85

**Q.** And the “Leukocytes relative change from baseline, RIPK1 Inhibitor vs placebo, point estimate” value (600 mg, EOT)?
**A.** 1.03

**Q.** And the “Lymphocytes relative change from baseline, RIPK1 Inhibitor vs placebo, point estimate” value (600 mg, EOT)?
**A.** 1.03

**Q.** What about the “Neutrophils/Lymphocytes (RATIO) relative change from baseline, RIPK1 Inhibitor vs placebo, point estimate” value (600 mg, EOT) of the same compound?
**A.** 0.67

**Q.** What about the “D-Dimer: point estimate of the relative change from baseline (geometric mean)” value (Day 03) of the same compound?
**A.** 1.00

**Q.** And the “D-Dimer: point estimate of the relative change from baseline displayed as percent change” value (Day 03)?
**A.** −0.31%

**Q.** What about the “Ferritin: point estimate of the relative change from baseline (geometric mean)” value (Day 03) of the same compound?
**A.** 3.43

**Q.** What about the “Ferritin: point estimate of the relative change from baseline displayed as percent change” value (Day 03) of the same compound?
**A.** 242.68%

**Q.** What about the “Lactate Dehydrogenase: point estimate of the relative change from baseline (geometric mean)” value (Day 03) of the same compound?
**A.** 2.42

**Q.** What about the “Lactate Dehydrogenase: point estimate of the relative change from baseline displayed as percent change” value (Day 03) of the same compound?
**A.** 141.68%

**Q.** And the “Leukocytes: point estimate of the relative change from baseline (geometric mean)” value (Day 03)?
**A.** 6.10

**Q.** And the “Leukocytes: point estimate of the relative change from baseline displayed as percent change” value (Day 03)?
**A.** 509.93%

**Q.** What about the “Lymphocytes: point estimate of the relative change from baseline (geometric mean)” value (Day 03) of the same compound?
**A.** 1.35

**Q.** What about the “Lymphocytes: point estimate of the relative change from baseline displayed as percent change” value (Day 03) of the same compound?
**A.** 34.70%

**Q.** What about the “Neutrophils/Lymphocytes (RATIO): point estimate of the relative change from baseline (geometric mean)” value (Day 03) of the same compound?
**A.** 2.01

**Q.** What about the “Neutrophils/Lymphocytes (RATIO): point estimate of the relative change from baseline displayed as percent change” value (Day 03) of the same compound?
**A.** 100.80%

**Q.** What about the “D-Dimer: point estimate of the relative change from baseline (geometric mean)” value (Day 05) of the same compound?
**A.** 1.04

**Q.** What about the “D-Dimer: point estimate of the relative change from baseline displayed as percent change” value (Day 05) of the same compound?
**A.** 4.10%

**Q.** And the “Ferritin: point estimate of the relative change from baseline (geometric mean)” value (Day 05)?
**A.** 2.91

**Q.** What about the “Ferritin: point estimate of the relative change from baseline displayed as percent change” value (Day 05) of the same compound?
**A.** 191.34%

**Q.** And the “Lactate Dehydrogenase: point estimate of the relative change from baseline (geometric mean)” value (Day 05)?
**A.** 2.23

**Q.** And the “Lactate Dehydrogenase: point estimate of the relative change from baseline displayed as percent change” value (Day 05)?
**A.** 122.59%

**Q.** What about the “Leukocytes: point estimate of the relative change from baseline (geometric mean)” value (Day 05) of the same compound?
**A.** 6.14

**Q.** What about the “Leukocytes: point estimate of the relative change from baseline displayed as percent change” value (Day 05) of the same compound?
**A.** 513.77%

**Q.** And the “Lymphocytes: point estimate of the relative change from baseline (geometric mean)” value (Day 05)?
**A.** 1.43

**Q.** And the “Lymphocytes: point estimate of the relative change from baseline displayed as percent change” value (Day 05)?
**A.** 42.51%

**Q.** And the “Neutrophils/Lymphocytes (RATIO): point estimate of the relative change from baseline (geometric mean)” value (Day 05)?
**A.** 1.89

**Q.** And the “Neutrophils/Lymphocytes (RATIO): point estimate of the relative change from baseline displayed as percent change” value (Day 05)?
**A.** 89.49%

**Q.** What about the “D-Dimer: point estimate of the relative change from baseline (geometric mean)” value (Day 07) of the same compound?
**A.** 0.96

**Q.** And the “D-Dimer: point estimate of the relative change from baseline displayed as percent change” value (Day 07)?
**A.** −3.52%

**Q.** What about the “Ferritin: point estimate of the relative change from baseline (geometric mean)” value (Day 07) of the same compound?
**A.** 2.80

**Q.** What about the “Ferritin: point estimate of the relative change from baseline displayed as percent change” value (Day 07) of the same compound?
**A.** 179.61%

**Q.** What about the “Lactate Dehydrogenase: point estimate of the relative change from baseline (geometric mean)” value (Day 07) of the same compound?
**A.** 2.10

**Q.** And the “Lactate Dehydrogenase: point estimate of the relative change from baseline displayed as percent change” value (Day 07)?
**A.** 110.26%

**Q.** And the “Leukocytes: point estimate of the relative change from baseline (geometric mean)” value (Day 07)?
**A.** 6.15

**Q.** And the “Leukocytes: point estimate of the relative change from baseline displayed as percent change” value (Day 07)?
**A.** 514.60%

**Q.** What about the “Lymphocytes: point estimate of the relative change from baseline (geometric mean)” value (Day 07) of the same compound?
**A.** 1.52

**Q.** And the “Lymphocytes: point estimate of the relative change from baseline displayed as percent change” value (Day 07)?
**A.** 51.69%

**Q.** And the “Neutrophils/Lymphocytes (RATIO): point estimate of the relative change from baseline (geometric mean)” value (Day 07)?
**A.** 1.74

**Q.** What about the “Neutrophils/Lymphocytes (RATIO): point estimate of the relative change from baseline displayed as percent change” value (Day 07) of the same compound?
**A.** 74.47%

**Q.** What about the “D-Dimer: point estimate of the relative change from baseline (geometric mean)” value (Day 15) of the same compound?
**A.** 0.96

**Q.** And the “D-Dimer: point estimate of the relative change from baseline displayed as percent change” value (Day 15)?
**A.** −3.71%

**Q.** And the “Ferritin: point estimate of the relative change from baseline (geometric mean)” value (Day 15)?
**A.** 2.66

**Q.** And the “Ferritin: point estimate of the relative change from baseline displayed as percent change” value (Day 15)?
**A.** 166.34%

**Q.** And the “Lactate Dehydrogenase: point estimate of the relative change from baseline (geometric mean)” value (Day 15)?
**A.** 2.05

**Q.** What about the “Lactate Dehydrogenase: point estimate of the relative change from baseline displayed as percent change” value (Day 15) of the same compound?
**A.** 104.58%

**Q.** And the “Leukocytes: point estimate of the relative change from baseline (geometric mean)” value (Day 15)?
**A.** 6.60

**Q.** What about the “Leukocytes: point estimate of the relative change from baseline displayed as percent change” value (Day 15) of the same compound?
**A.** 560.21%

**Q.** What about the “Lymphocytes: point estimate of the relative change from baseline (geometric mean)” value (Day 15) of the same compound?
**A.** 1.63

**Q.** What about the “Lymphocytes: point estimate of the relative change from baseline displayed as percent change” value (Day 15) of the same compound?
**A.** 63.48%

**Q.** And the “Neutrophils/Lymphocytes (RATIO): point estimate of the relative change from baseline (geometric mean)” value (Day 15)?
**A.** 1.66

**Q.** And the “Neutrophils/Lymphocytes (RATIO): point estimate of the relative change from baseline displayed as percent change” value (Day 15)?
**A.** 65.55%
